# Literature values as cited in patent US12441757B2, “Platform for screening NAD+ binding proteins in a cellular context” (OREGON HEALTH & SCIENCE UNIVERSITY, priority 2020, dated 2025).
# Biological target: T1, PARP-1 (Homo sapiens, UniProt P09874)
# T1 construct: Full length His6-PARP-1 and His6-SUMO-PARP-10 proteins we expressed and purified; His6 (N); made in house
# Details: cited from earlier work
# T1 sequence (P09874 whole entry): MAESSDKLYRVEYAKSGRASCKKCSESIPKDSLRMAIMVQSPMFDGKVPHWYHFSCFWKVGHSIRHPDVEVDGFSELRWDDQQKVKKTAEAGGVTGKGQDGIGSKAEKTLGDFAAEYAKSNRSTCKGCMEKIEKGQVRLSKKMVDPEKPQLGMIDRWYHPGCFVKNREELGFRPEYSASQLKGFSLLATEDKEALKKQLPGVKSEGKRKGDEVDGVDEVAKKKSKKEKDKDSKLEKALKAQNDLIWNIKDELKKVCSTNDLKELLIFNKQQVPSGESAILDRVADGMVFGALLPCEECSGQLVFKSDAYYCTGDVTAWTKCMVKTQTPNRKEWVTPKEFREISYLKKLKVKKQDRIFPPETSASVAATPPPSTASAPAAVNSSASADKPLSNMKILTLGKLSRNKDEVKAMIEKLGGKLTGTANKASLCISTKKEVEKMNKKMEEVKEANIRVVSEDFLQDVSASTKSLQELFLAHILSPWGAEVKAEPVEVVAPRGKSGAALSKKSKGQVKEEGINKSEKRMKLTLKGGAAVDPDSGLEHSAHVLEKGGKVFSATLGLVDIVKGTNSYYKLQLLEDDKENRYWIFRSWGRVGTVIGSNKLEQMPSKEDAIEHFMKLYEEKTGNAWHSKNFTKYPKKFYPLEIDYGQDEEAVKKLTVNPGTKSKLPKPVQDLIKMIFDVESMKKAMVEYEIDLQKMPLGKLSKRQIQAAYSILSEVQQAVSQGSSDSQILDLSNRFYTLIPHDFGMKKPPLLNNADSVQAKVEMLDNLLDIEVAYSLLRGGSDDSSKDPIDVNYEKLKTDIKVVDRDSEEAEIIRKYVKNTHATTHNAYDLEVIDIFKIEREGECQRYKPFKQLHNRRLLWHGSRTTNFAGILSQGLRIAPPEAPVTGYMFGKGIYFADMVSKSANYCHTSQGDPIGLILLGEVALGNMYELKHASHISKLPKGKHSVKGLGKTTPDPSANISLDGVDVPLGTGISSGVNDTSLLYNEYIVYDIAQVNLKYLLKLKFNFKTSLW
smiles,measurement,value
"NC(=O)c1cccc([C@@H]2O[C@H](COP(=O)(O)OP(=O)(O)OC[C@H]3O[C@@H](n4cnc5c(N)ncnc54)[C@H](O)[C@@H]3O)[C@@H](O)[C@H]2O)c1 [BAD, benzamide adenine dinucleotide]",DNA dependence of binding to PARP-1,DNA-dependent
same,binding to PARP-1 and inhibition of its enzymatic activity,binds to PARP-1 and inhibits its enzymatic activity
